Source: patent EP0725790B1, “SUBSTITUTED TETRA- AND PENTAPEPTIDE INHIBITORS OF PROTEIN:FARNESYL TRANSFERASE” (PARKE DAVIS & COMPANY, priority 1993, dated 1995)
Non-standard residues stand in square brackets, D forms with d. Residues, ends and D or L forms follow the SMILES beside them. *: point of attachment. pY = N[C@@H](Cc1ccc(OP(=O)(O)O)cc1)C(=O)O; Cbz = O=C(OCc1ccccc1)*; Bn = c1ccc(C*)cc1; NHNH2 = NN*

Biological target: T1, rat brain farnesyl protein transferase (Rattus norvegicus, UniProt Q02293+Q04631)
T1 construct: 40-fold purified rat brain farnesyl protein transferase; from tissue; host or cells: rat brain
Experiment: PFT inhibitory activity assay (radiolabeled farnesyl pyrophosphate, biotinylated peptide substrate, streptavidin beads)
Format: biochemical
Details: 40-fold purified enzyme; 30 mM potassium phosphate buffer, pH 7.4; 37°C for 30 minutes; farnesyl pyrophosphate 0.12 µM, (biotinyl)-Ahe-Tyr-Lys-Cys-Val-Ile-Met 0.1 µM
Description: The PFT inhibitory activity of compounds of Formula I was assayed in 30 mM potassium phosphate buffer, pH 7.4, containing 7 mM DTT, 1.2 mM MgCl2, 0.1 mM leupeptin, 0.1 mM pepstatin, and 0.2 mM phenylmethylsulfonyl fluoride. Assays were performed in 96 well plates (Wallec) and employed solutions composed of varying concentrations of a compound of Formula I in 100% DMSO. Upon addition of both substrates, radiolabeled farnesyl pyrophosphate ([1-^3H], specific activity 15-30 Ci/mmol, final concentration 0.12 µM) and (biotinyl)-Ahe-Tyr-Lys-Cys-Val-Ile-Met peptide (final concentration 0.1 µM), the enzyme reaction was started by addition of 40-fold purified rat brain farnesyl protein transferase. After incubation at 37°C for 30 minutes, the reaction was terminated by diluting the reaction 2.5-fold with a stop buffer containing 1.5 M magnesium acetate, 0.2 M H3PO4, 0.5% BSA, and strepavidin beads (Amersham) at a concentration of 1.3 mg/mL. After allowing the plate to settle for 30 minutes at room temperature, radioactivity was quantitated on a microBeta counter (model 1450, Wallec).

| IC50 | SMILES |
| --- | --- |
| 62 nM | C[C@@H](NC(=O)[C@H](Cc1c[nH]c2ccccc12)NC(=O)[C@H](COCc1ccccc1)NC(=O)[C@H](Cc1ccc(OCc2ccccc2)cc1)NC(=O)[C@H](Cc1c[nH]cn1)NC(=O)OCc1ccccc1)C(=O)NN [Cbz-His-Tyr(OBn)-Ser(OBn)-Trp-D-Ala- NHNH2] (Cbz-HY(Bn)S(Bn)W[dA]-NHNH2) |
| 17 nM | C[C@@H](NC(=O)[C@H](Cc1c[nH]c2ccccc12)NC(=O)[C@H](COCc1ccccc1)NC(=O)[C@H](Cc1ccc(OCc2ccccc2)cc1)NC(=O)[C@H](Cc1c[nH]cn1)NC(=O)OCc1ccccc1)C(N)=O [Cbz-His-Tyr(OBn)-Ser(OBn)-Trp-DAla- NH2, Nα-[N-[N-[N-[N-[(Phenylmethoxy)carbonyl]-L-histidyl]-O-(phenylmethyl)-L-tyrosyl]-O-(phenylmethyl)-L-seryl]-Ltryptophyl]-D-alaninamide] (Cbz-HY(Bn)S(Bn)W[dA]-NH2) |
| 230 nM | CCNC(=O)[C@@H](C)NC(=O)[C@H](Cc1c[nH]c2ccccc12)NC(=O)[C@H](COCc1ccccc1)NC(=O)[C@H](Cc1ccc(OCc2ccccc2)cc1)NC(=O)[C@H](Cc1c[nH]cn1)NC(=O)OCc1ccccc1 [Cbz-His-Tyr(OBn)-Ser(OBn)-Trp-DAla- NHEt, Cbz-His-Tyr(OBn)-Ser(OBn)-Trp-D-Ala- NHEt] (Cbz-HY(Bn)S(Bn)W[dA]-NHEt) |
| 48 nM | C[C@@H](NC(=O)[C@H](Cc1c[nH]c2ccccc12)NC(=O)[C@H](COCc1ccccc1)NC(=O)[C@H](Cc1ccc(OCc2ccccc2)cc1)NC(=O)[C@H](Cc1c[nH]cn1)NC(=O)OCc1ccccc1)C(=O)O [Cbz-His-Tyr(OBn)-Ser(OBn)-Trp-DAla- OH, Cbz-His-Tyr(OBn)-Ser(OBn)-Trp-D-Ala] (Cbz-HY(Bn)S(Bn)W[dA]-OH) |
| 19 nM | COC(=O)[C@@H](C)NC(=O)[C@H](Cc1c[nH]c2ccccc12)NC(=O)[C@H](COCc1ccccc1)NC(=O)[C@H](Cc1ccc(OCc2ccccc2)cc1)NC(=O)[C@H](Cc1c[nH]cn1)NC(=O)OCc1ccccc1 [Cbz-His-Tyr(OBn)-Ser(OBn)-Trp-DAla-OMe, Cbz-His-Tyr(OBn)-Ser(OBn)-Trp-D-Ala-OMe] (Cbz-HY(Bn)S(Bn)W[dA]-OMe) |
| 83 nM | NC(=O)[C@H](Cc1c[nH]c2ccccc12)NC(=O)[C@H](COCc1ccccc1)NC(=O)[C@H](Cc1ccc(OCc2ccccc2)cc1)NC(=O)[C@H](Cc1c[nH]cn1)NC(=O)OCc1ccccc1 [Cbz-His-Tyr(OBn)-Ser(OBn)-Trp-NH2, Cbz-His-Tyr(OBn)-Ser(OBn)-Trp- NH2] (Cbz-HY(Bn)S(Bn)W-NH2) |
| 1800 nM | C[C@@H](NC(=O)[C@H](Cc1c[nH]c2ccccc12)NC(=O)[C@H](CO)NC(=O)[C@H](Cc1ccc(OCc2ccccc2)cc1)NC(=O)[C@H](Cc1c[nH]cn1)NC(=O)OCc1ccccc1)C(N)=O [Cbz-His-Tyr(OBn)-Ser-Trp-DAla-NH2, Cbz-His-Tyr(OBn)-Ser-Trp-D-Ala- NH2] (Cbz-HY(Bn)SW[dA]-NH2) |
| 40 nM | C[C@@H](NC(=O)[C@H](Cc1c[nH]c2ccccc12)NC(=O)[C@H](COCc1ccccc1)NC(=O)[C@H](Cc1ccc(O)cc1)NC(=O)[C@H](Cc1c[nH]cn1)NC(=O)OCc1ccccc1)C(N)=O [Cbz-His-Tyr-Ser(OBn)-Trp-DAla-NH2, Cbz-His-Tyr-Ser(OBn)-Trp-D-Ala- NH2] (Cbz-HYS(Bn)W[dA]-NH2) |

Further lines, the compound ahead of its results:

| SMILES | IC50 |
| --- | --- |
| C[C@@H](NC(=O)[C@H](Cc1c[nH]c2ccccc12)NC(=O)[C@H](COCc1ccccc1)NC(=O)[C@H](Cc1ccc(OCc2ccccc2)cc1)NC(=O)[C@@H](Cc1c[nH]cn1)NC(=O)OCc1ccccc1)C(N)=O [Cbz-DHis-Tyr (OBn)-Ser(OBn)-Trp-DAla-NH2, Cbz-D-His-Tyr(OBn)-Ser(OBn)-Trp-D-Ala- NH2] (Cbz-[dH]Y(Bn)S(Bn)W[dA]-NH2) | 120 nM |
| C[C@@H](NC(=O)[C@H](Cc1c[nH]c2ccccc12)NC(=O)[C@H](COCc1ccccc1)NC(=O)[C@@H](Cc1ccc(OCc2ccccc2)cc1)NC(=O)[C@H](Cc1c[nH]cn1)NC(=O)OCc1ccccc1)C(N)=O [Cbz-His-DTyr(OBn)-Ser(OBn)-Trp-DAla-NH2, Cbz-His-D-Tyr(OBn)-Ser(OBn)-Trp-D-Ala- NH2] (Cbz-H[dY](Bn)S(Bn)W[dA]-NH2) | 39 nM |
| C[C@@H](NC(=O)[C@H](Cc1c[nH]c2ccccc12)NC(=O)[C@H](COCc1ccccc1)NC(=O)[C@H](Cc1ccccc1)NC(=O)[C@H](Cc1c[nH]cn1)NC(=O)OCc1ccccc1)C(N)=O [Cbz-His-Phe-Ser(OBn)-Trp-DAla-NH2, Cbz-His-Phe-Ser(OBn)-Trp-D-Ala- NH2] (Cbz-HFS(Bn)W[dA]-NH2) | 10 nM |
| C[C@@H](NC(=O)[C@H](Cc1c[nH]c2ccccc12)NC(=O)[C@H](CS)NC(=O)[C@H](Cc1ccc(OCc2ccccc2)cc1)NC(=O)[C@H](Cc1c[nH]cn1)NC(=O)OCc1ccccc1)C(N)=O [Cbz-His-Tyr (OBn)-Cys-Trp-DAla-NH2] (Cbz-HY(Bn)CW[dA]-NH2) | 4 nM |
| C[C@H](NC(=O)[C@H](COCc1ccccc1)NC(=O)[C@H](Cc1ccc(OCc2ccccc2)cc1)NC(=O)[C@H](Cc1c[nH]cn1)NC(=O)OCc1ccccc1)C(=O)N[C@H](C)C(N)=O [Cbz-His-Tyr (OBn)-Ser(OBn)-Ala-DAla-NH2, Cbz-His-Tyr(OBn)-Ser(OBn)-Ala-D-Ala- NH2] (Cbz-HY(Bn)S(Bn)A[dA]-NH2) | 330 nM |
| COC(=O)[C@H](Cc1c[nH]c2ccccc12)NC(=O)[C@H](COCc1ccccc1)NC(=O)[C@H](Cc1ccc(OCc2ccccc2)cc1)NC(=O)[C@H](Cc1c[nH]cn1)NC(=O)OCc1ccccc1 [Cbz-His-Tyr(OBn)-Ser(OBn)-Trp- OMe, N-[N-[N-[N-[(Phenylmethoxy)carbonyl]-L-histidyl]-O-(phenylmethyl)-L-tyrosyl]-O-(phenylmethyl)-L-seryl]-L-tryptophan, methyl ester] (Cbz-HY(Bn)S(Bn)W-OMe) | 115 nM |
| C[C@H](NC(=O)[C@H](Cc1c[nH]c2ccccc12)NC(=O)[C@H](COCc1ccccc1)NC(=O)[C@H](Cc1ccc(OCc2ccccc2)cc1)NC(=O)[C@H](Cc1c[nH]cn1)NC(=O)OCc1ccccc1)C(N)=O [Cbz-His-Tyr(OBn)-Ser(OBn)-Trp-Ala-NH2, Cbz-His-Tyr(OBn)-Ser(OBn)-Trp-Ala- NH2] (Cbz-HY(Bn)S(Bn)WA-NH2) | 15 nM |
| C[C@@H](NC(=O)[C@H](Cc1c[nH]c2ccccc12)NC(=O)[C@H](COCc1ccccc1)NC(=O)[C@H](Cc1ccc(OP(=O)(O)O)cc1)NC(=O)[C@H](Cc1c[nH]cn1)NC(=O)OCc1ccccc1)C(N)=O [Cbz-His-Tyr(OPO3H2)-Ser(OBn)-Trp-DAla- NH2] (Cbz-H[pY]S(Bn)W[dA]-NH2) | 9 nM |
